Read-outs that look alike come from different tables or passages of the source.
Tested on: Fusarium graminearum in wheat
Assay type: in vivo
[1] = Trial 1, dosage mL/Ha: benzovindiflupyr 200, phenamacril 1500, combination 200 + 1500
[2] = Trial 2, dosage mL/Ha: benzovindiflupyr 200, phenamacril 1500, combination 200 + 1500
[3] = Trial 3, dosage mL/Ha: benzovindiflupyr 200, phenamacril 1500, combination 150 + 1250
[4] = Trial 4, dosage mL/Ha: benzovindiflupyr 200, phenamacril 1500, combination 150 + 1250

SMILES	% disease control of Fusarium graminearum in wheat at 3DAA, Actual [1]	% disease control of Fusarium graminearum in wheat at 7DAA, Actual [2]	% disease control of Fusarium graminearum in wheat at 3DAA, Actual [3]	% disease control of Fusarium graminearum in wheat at 7DAA, Actual [4]
CCOC(=O)C(C#N)=C(N)c1ccccc1 [Phenamacril, ethyl (2EZ)-3-amino-2-cyano-3-phenylacrylate]	83.5%	83.5%	83.5%	83.5%
Cn1cc(C(=O)Nc2cccc3c2[C@@H]2CC[C@H]3C2=C(Cl)Cl)c(C(F)F)n1 (racemic) [Benzovindiflupyr, N-[(1RS,4SR)-9-(dichloromethylene)-1,2,3,4-tetrahydro-1,4-methanonaphthalen-5-yl]-3-(difluoromethyl)-1-methylpyrazole-4-carboxamide]	27%	27%	27%	27%

Source: patent US20210137119A1 (priority 2017, published 2021)
